According to patent publication US4864023A, “Pyrido(3,2,1-IJ)-1,3,4-benzoxadiazine derivatives” (priority 1988, dated 1989):
Converted amounts (≈) assume the structure as drawn. Read-outs that look alike come from different tables or passages of the source.

Key:
Experiment in all cases: in vitro antibacterial activity, standard agar dilution method
Type in all cases: cell-based
[1] = tested on: Enterococcus faecalis NR 2943; settings: NR2943, aerobic, read-out: minimum inhibitory concentration (MIC)
[2] = tested on: Enterobacter cloacae NR 2946; settings: NR2946, aerobic, read-out: minimum inhibitory concentration (MIC)
[3] = tested on: Salmonella typhimurium IFO 12529; settings: Salmonella enterica, aerobic, read-out: minimum inhibitory concentration (MIC)
[4] = tested on: Klebsiella pneumoniae FDA PCI 602; settings: FDAPCI602, aerobic, read-out: minimum inhibitory concentration (MIC)
[5] = tested on: Staphylococcus aureus FDA 209P JC-1; settings: FDA209P, read-out: minimum inhibitory concentration (MIC)
[6] = tested on: Proteus vulgaris OX19 ATCC 6898; settings: ATCC6898, aerobic, read-out: minimum inhibitory concentration (MIC)
Escherichia coli NR 2630 = settings: NR2630; Escherichia coli NR 2630; aerobic; agar dilution; read-out: minimum inhibitory concentration (MIC)
[7] = tested on: Staphylococcus epidermidis IFO 12993; settings: IFO12993, aerobic, read-out: minimum inhibitory concentration (MIC)
[8] = tested on: Bordetella bronchiseptica ATCC 4617; settings: ATCC4617, aerobic, read-out: minimum inhibitory concentration (MIC)
[9] = tested on: Enterobacter aerogenes NR 2945; settings: Klebsiella aerogenes, NR2945, aerobic, read-out: minimum inhibitory concentration (MIC)
[10] = tested on: Staphylococcus aureus NR 2855; settings: NR2855; Staphylococcus aureus NR 2855; aerobic; agar dilution; read-out: minimum inhibitory concentration (MIC)
[11] = tested on: Staphylococcus epidermidis NR 2942; settings: NR2942, aerobic, read-out: minimum inhibitory concentration (MIC)
[12] = tested on: Alcaligenes faecalis IFO 13111; settings: IFO13111, aerobic, read-out: minimum inhibitory concentration (MIC)
[13] = tested on: Escherichia coli NIHJ JC-2; settings: NIHJJC2, aerobic, read-out: minimum inhibitory concentration (MIC)
[14] = tested on: Proteus rettgeri ATCC 14505; settings: Providencia rettgeri, ATCC14505, aerobic, read-out: minimum inhibitory concentration (MIC)
[15] = tested on: Bacillus subtilis PCI 219; settings: PCI219, aerobic, read-out: minimum inhibitory concentration (MIC)
[16] = tested on: Pseudomonas aeruginosa A3; settings: aerobic, read-out: minimum inhibitory concentration (MIC)
[17] = tested on: Pseudomonas aeruginosa NR 2950; settings: NR2950, aerobic, read-out: minimum inhibitory concentration (MIC)
[18] = tested on: Staphylococcus aureus Smith; settings: read-out: minimum inhibitory concentration (MIC)
[19] = tested on: Serratia marcescens IFO 12648; settings: IFO12648, aerobic, read-out: minimum inhibitory concentration (MIC)
[20] = tested on: Citrobacter freundii IFO 12681; settings: IFO12681, aerobic, read-out: minimum inhibitory concentration (MIC)
[21] = Staphylococcus aureus FDA 209P JC-1, aerobic, agar dilution
[22] = Staphylococcus aureus Smith, aerobic, agar dilution

| Structure (SMILES) | MIC [1] | MIC [2] | MIC [3] | MIC [4] | MIC [5, 21] | MIC [6] | MIC (Escherichia coli NR 2630) | MIC [7] | MIC [8] | MIC [9] | MIC [10] | MIC [11] | MIC [12] | MIC [13] | MIC [14] | MIC [15] | MIC [16] | MIC [17] | MIC [19] | MIC [20] | other results |
| --- | --- | --- | --- | --- | --- | --- | --- | --- | --- | --- | --- | --- | --- | --- | --- | --- | --- | --- | --- | --- | --- |
| CCCN1CCN(c2c(F)cc3c(=O)c(C(=O)O)cn4c3c2OCN4C)CC1 [Example 43] | 6.25 µg/mL (≈ 16 µM) | 0.1 µg/mL (≈ 0.256 µM) | 0.1 µg/mL (≈ 0.256 µM) | 0.39 µg/mL (≈ 0.999 µM) | 0.78 µg/mL (≈ 2 µM) | 0.1 µg/mL (≈ 0.256 µM) | 0.05 µg/mL (≈ 0.128 µM) | 0.39 µg/mL (≈ 0.999 µM) | 0.39 µg/mL (≈ 0.999 µM) | 0.1 µg/mL (≈ 0.256 µM) | 0.78 µg/mL (≈ 2 µM) | 0.39 µg/mL (≈ 0.999 µM) | 0.78 µg/mL (≈ 2 µM) | 0.1 µg/mL (≈ 0.256 µM) | 0.78 µg/mL (≈ 2 µM) | 0.1 µg/mL (≈ 0.256 µM) | 0.78 µg/mL (≈ 2 µM) | 6.25 µg/mL (≈ 16 µM) | 0.2 µg/mL (≈ 0.512 µM) | 0.1 µg/mL (≈ 0.256 µM) | MIC [18, 22]: 0.39 µg/mL (≈ 0.999 µM) |
| CN1COc2c(N3CCN(C(=O)CCC(=O)O)CC3)c(F)cc3c(=O)c(C(=O)O)cn1c23 [Example 49, 10-[4-(3-carboxypropionyl)-1-piperazinyl]-9-fluoro-3-methyl-7-oxo-2,3-dihydro-7H-pyrido[3,2,1-ij]-1,3,4-benzoxadiazine-6-carboxylic acid] | 100 µg/mL (≈ 223 µM) | 0.78 µg/mL (≈ 1.74 µM) | 0.39 µg/mL (≈ 0.87 µM) | 1.56 µg/mL (≈ 3.48 µM) | 6.25 µg/mL (≈ 13.9 µM) | 0.78 µg/mL (≈ 1.74 µM) | 0.39 µg/mL (≈ 0.87 µM) | 12.5 µg/mL (≈ 27.9 µM) | 50 µg/mL (≈ 112 µM) | 0.39 µg/mL (≈ 0.87 µM) | 12.5 µg/mL (≈ 27.9 µM) | 12.5 µg/mL (≈ 27.9 µM) | 100 µg/mL (≈ 223 µM) | 1.56 µg/mL (≈ 3.48 µM) | 3.13 µg/mL (≈ 6.98 µM) | 3.13 µg/mL (≈ 6.98 µM) | 3.13 µg/mL (≈ 6.98 µM) | 50 µg/mL (≈ 112 µM) | 3.13 µg/mL (≈ 6.98 µM) | 0.39 µg/mL (≈ 0.87 µM) | MIC [18, 22]: 6.25 µg/mL (≈ 13.9 µM) |
| CC(=O)CN1CCN(c2c(F)cc3c(=O)c(C(=O)O)cn4c3c2OCN4C)CC1 [Example 40, 9-fluoro-3-methyl-7-oxo-10-[4-(2-oxo-n-propyl)-1-piperazinyl]-2,3-dihydro-7H-pyrido[3,2,1-ij]-1,3,4-benzoxadiazine-6-carboxylic acid] | 12.5 µg/mL (≈ 30.9 µM) | 0.39 µg/mL (≈ 0.964 µM) | 0.39 µg/mL (≈ 0.964 µM) | 1.56 µg/mL (≈ 3.86 µM) | 1.56 µg/mL (≈ 3.86 µM) | 0.2 µg/mL (≈ 0.495 µM) | 0.2 µg/mL (≈ 0.495 µM) | 1.56 µg/mL (≈ 3.86 µM) | 1.56 µg/mL (≈ 3.86 µM) | 0.1 µg/mL (≈ 0.247 µM) | 0.78 µg/mL (≈ 1.93 µM) | 0.78 µg/mL (≈ 1.93 µM) | 6.25 µg/mL (≈ 15.5 µM) | 0.39 µg/mL (≈ 0.964 µM) | 3.13 µg/mL (≈ 7.74 µM) | 0.1 µg/mL (≈ 0.247 µM) | 1.56 µg/mL (≈ 3.86 µM) | 12.5 µg/mL (≈ 30.9 µM) | 1.56 µg/mL (≈ 3.86 µM) | 0.2 µg/mL (≈ 0.495 µM) | MIC [18, 22]: 0.78 µg/mL (≈ 1.93 µM) |
| CN1COc2c(N3CCNC(=O)C3)c(F)cc3c(=O)c(C(=O)O)cn1c23 [Example 24, 9-fluoro-3-methyl-7-oxo-10-(3-oxo-1-piperazinyl)-2,3-dihydro-7H-pyrido[3,2,1-ij]-1,3,4-benzoxadiazine-6-carboxylic acid] | 25 µg/mL (≈ 69 µM) | 3.13 µg/mL (≈ 8.64 µM) | 0.78 µg/mL (≈ 2.15 µM) | 6.25 µg/mL (≈ 17.3 µM) | 1.56 µg/mL (≈ 4.31 µM) | 0.39 µg/mL (≈ 1.08 µM) | 0.78 µg/mL (≈ 2.15 µM) | 3.13 µg/mL (≈ 8.64 µM) | 50 µg/mL (≈ 138 µM) | 0.78 µg/mL (≈ 2.15 µM) | 6.25 µg/mL (≈ 17.3 µM) | 3.13 µg/mL (≈ 8.64 µM) | 25 µg/mL (≈ 69 µM) | 1.56 µg/mL (≈ 4.31 µM) | 12.5 µg/mL (≈ 34.5 µM) | 0.39 µg/mL (≈ 1.08 µM) | 3.13 µg/mL (≈ 8.64 µM) | 25 µg/mL (≈ 69 µM) | 6.25 µg/mL (≈ 17.3 µM) | 1.56 µg/mL (≈ 4.31 µM) | MIC [18, 22]: 1.56 µg/mL (≈ 4.31 µM) |
| CCNC1CCN(c2c(F)cc3c(=O)c(C(=O)O)cn4c3c2OCN4C)CC1 [Example 35] | 6.25 µg/mL (≈ 16 µM) | 0.39 µg/mL (≈ 0.999 µM) | 0.1 µg/mL (≈ 0.256 µM) | 1.56 µg/mL (≈ 4 µM) |  | 0.05 µg/mL (≈ 0.128 µM) | 0.1 µg/mL (≈ 0.256 µM) | 0.78 µg/mL (≈ 2 µM) | 12.5 µg/mL (≈ 32 µM) | 0.1 µg/mL (≈ 0.256 µM) | 1.56 µg/mL (≈ 4 µM) | 0.78 µg/mL (≈ 2 µM) | 25 µg/mL (≈ 64 µM) | 0.1 µg/mL (≈ 0.256 µM) | 3.13 µg/mL (≈ 8.02 µM) | 0.05 µg/mL (≈ 0.128 µM) | 1.56 µg/mL (≈ 4 µM) | 12.5 µg/mL (≈ 32 µM) | 1.56 µg/mL (≈ 4 µM) | 0.2 µg/mL (≈ 0.512 µM) | MIC ([5]; Staphylococcus aureus): 0.39 µg/mL (≈ 0.999 µM); MIC ([18]; Staphylococcus aureus): 0.39 µg/mL (≈ 0.999 µM) |
